Experimental data taken from patent US6914045B2, “Glycopeptide antibiotics” (Wyeth Holdings Corporation, priority 2001, dated 2005).
≈ marks a conversion by molar mass, not a printed value.

Key:
Assay in all cases: in vitro antibacterial evaluation, MIC by broth dilution
Format in all cases: cell-based
Escherichia coli = conditions: 18 hours at 35° C.
Enterococcus sp. = conditions: broth dilution, 18 hours at 35° C.
Summary of the method: (§1)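 MIC, the lowest antibiotic concentration preventing growth, was read across 64-0.06 μg/mL with 5×10^5 CFU/mL inoculum. Method followed NCCLS M7-A2 broth dilution using Mueller-Hinton II; Gram-positive strains covered recent methicillin-, penicillin- and/or vancomycin-resistant clinical isolates.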

Staphylococcus sp. = conditions: broth dilution, 18 hours at 35° C.
Summary of the method: as §1

Streptococcus sp. = conditions: broth dilution, 18 hours at 35° C.
Summary of the method: as §1

## COc1ccc(COCC2OC(OC3C(CO)OC(Oc4ccc(CC5NC(=O)C(C(C)c6ccccc6)NC(=O)CNC(=O)C(CO)NC(=O)C(C(O)C6CNC(=N)N6C6OC(CO)C(O)C(O)C6O)NC(=O)C(C(O)C6CNC(=N)N6)NC5=O)cc4)C(O)C3O)C(O)C(O)C2O)cc1 (stereo not shown) [Example 232]
Escherichia coli
  MIC Escherichia coli (ATCC 25922): >64 µg/mL
  MIC Escherichia coli (GC 4559): 64 µg/mL (≈ 45.2 µM)
  MIC Escherichia coli (GC 4560): 2 µg/mL (≈ 1.41 µM)
Enterococcus sp.
  MIC Enterococcus avium (GC 4558): 32 µg/mL (≈ 22.6 µM)
  MIC Enterococcus faecalis (ATCC 29212): 32 µg/mL (≈ 22.6 µM)
  MIC Enterococcus faecalis (GC 2242): 16 µg/mL (≈ 11.3 µM)
  MIC Enterococcus faecalis (GC 2691): 32 µg/mL (≈ 22.6 µM)
  MIC Enterococcus faecalis (GC 3059): 32 µg/mL (≈ 22.6 µM)
  MIC Enterococcus faecalis (GC 4552): 32 µg/mL (≈ 22.6 µM)
  MIC Enterococcus faecalis (GC 4553): 32 µg/mL (≈ 22.6 µM)
  MIC Enterococcus faecalis (GC 4554): 32 µg/mL (≈ 22.6 µM)
  MIC Enterococcus faecalis (GC 6189): 64 µg/mL (≈ 45.2 µM)
  MIC Enterococcus faecium (GC 2243): 16 µg/mL (≈ 11.3 µM)
  MIC Enterococcus faecium (GC 4556): 32 µg/mL (≈ 22.6 µM)
  MIC Enterococcus faecium (GC 4557): 4 µg/mL (≈ 2.83 µM)
Enterococcus sp.; inoculum 5×10^5 CFU/mL, strain ATCC 29212
  MIC Enterococcus faecalis (ATCC 29212): 32 µg/mL (≈ 22.6 µM)
Enterococcus sp.; inoculum 5×10^5 CFU/mL, strain GC 2242
  MIC Enterococcus faecalis (GC 2242): 16 µg/mL (≈ 11.3 µM)
Enterococcus sp.; inoculum 5×10^5 CFU/mL, strain GC 2243
  MIC Enterococcus faecium (GC 2243): 16 µg/mL (≈ 11.3 µM)
Enterococcus sp.; inoculum 5×10^5 CFU/mL, strain GC 2691
  MIC Enterococcus faecalis (GC 2691): 32 µg/mL (≈ 22.6 µM)
Enterococcus sp.; inoculum 5×10^5 CFU/mL, strain GC 3059
  MIC Enterococcus faecalis (GC 3059): 32 µg/mL (≈ 22.6 µM)
Enterococcus sp.; inoculum 5×10^5 CFU/mL, strain GC 4552
  MIC Enterococcus faecalis (GC 4552): 32 µg/mL (≈ 22.6 µM)
Enterococcus sp.; inoculum 5×10^5 CFU/mL, strain GC 4553
  MIC Enterococcus faecalis (GC 4553): 32 µg/mL (≈ 22.6 µM)
Enterococcus sp.; inoculum 5×10^5 CFU/mL, strain GC 4554
  MIC Enterococcus faecalis (GC 4554): 32 µg/mL (≈ 22.6 µM)
Enterococcus sp.; inoculum 5×10^5 CFU/mL, strain GC 4556
  MIC Enterococcus faecium (GC 4556): 32 µg/mL (≈ 22.6 µM)
Enterococcus sp.; inoculum 5×10^5 CFU/mL, strain GC 4557
  MIC Enterococcus faecium (GC 4557): 4 µg/mL (≈ 2.83 µM)
Enterococcus sp.; inoculum 5×10^5 CFU/mL, strain GC 4558
  MIC Enterococcus avium (GC 4558): 32 µg/mL (≈ 22.6 µM)
Enterococcus sp.; inoculum 5×10^5 CFU/mL, strain GC 6189
  MIC Enterococcus faecalis (GC 6189): 64 µg/mL (≈ 45.2 µM)
Staphylococcus sp.
  MIC Coagulase Negative Staphylococcus (GC 4547): 2 µg/mL (≈ 1.41 µM)
  MIC Coagulase Negative Staphylococcus (GC 4548): 2 µg/mL (≈ 1.41 µM)
  MIC Coagulase Negative Staphylococcus (GC 4549): 1 µg/mL (≈ 0.707 µM)
  MIC Coagulase Negative Staphylococcus (GC 4551): 4 µg/mL (≈ 2.83 µM)
  MIC Coagulase Negative Staphylococcus (GC 6257): 2 µg/mL (≈ 1.41 µM)
  MIC Staphylococcus aureus (ATCC 29213): 4 µg/mL (≈ 2.83 µM)
  MIC Staphylococcus aureus (GC 1131): 4 µg/mL (≈ 2.83 µM)
  MIC Staphylococcus aureus (GC 3051): 4 µg/mL (≈ 2.83 µM)
  MIC Staphylococcus aureus (GC 3053): 8 µg/mL (≈ 5.65 µM)
  MIC Staphylococcus aureus (GC 4541): 4 µg/mL (≈ 2.83 µM)
  MIC Staphylococcus aureus (GC 4542): 4 µg/mL (≈ 2.83 µM)
  MIC Staphylococcus aureus (GC 4544): 4 µg/mL (≈ 2.83 µM)
  MIC Staphylococcus aureus (GC 4545): 4 µg/mL (≈ 2.83 µM)
  MIC Staphylococcus aureus-SMITH (GC 4543): 4 µg/mL (≈ 2.83 µM)
  MIC Staphylococcus haemolyticus (GC 4546): 2 µg/mL (≈ 1.41 µM)
Staphylococcus sp.; strain ATCC 29213
  MIC Staphylococcus aureus (ATCC 29213): 4 µg/mL (≈ 2.83 µM)
Staphylococcus sp.; strain GC 1131
  MIC Staphylococcus aureus (GC 1131): 4 µg/mL (≈ 2.83 µM)
Staphylococcus sp.; strain GC 3051
  MIC Staphylococcus aureus (GC 3051): 4 µg/mL (≈ 2.83 µM)
Staphylococcus sp.; strain GC 3053
  MIC Staphylococcus aureus (GC 3053): 8 µg/mL (≈ 5.65 µM)
Staphylococcus sp.; strain GC 4541
  MIC Staphylococcus aureus (GC 4541): 4 µg/mL (≈ 2.83 µM)
Staphylococcus sp.; strain GC 4542
  MIC Staphylococcus aureus (GC 4542): 4 µg/mL (≈ 2.83 µM)
Staphylococcus sp.; strain GC 4543
  MIC Staphylococcus aureus-SMITH (GC 4543): 4 µg/mL (≈ 2.83 µM)
Staphylococcus sp.; strain GC 4544
  MIC Staphylococcus aureus (GC 4544): 4 µg/mL (≈ 2.83 µM)
Staphylococcus sp.; strain GC 4545
  MIC Staphylococcus aureus (GC 4545): 4 µg/mL (≈ 2.83 µM)
Staphylococcus sp.; strain GC 4546
  MIC Staphylococcus haemolyticus (GC 4546): 2 µg/mL (≈ 1.41 µM)
Staphylococcus sp.; strain GC 4547
  MIC Coagulase Negative Staphylococcus (GC 4547): 2 µg/mL (≈ 1.41 µM)
Staphylococcus sp.; strain GC 4548
  MIC Coagulase Negative Staphylococcus (GC 4548): 2 µg/mL (≈ 1.41 µM)
Staphylococcus sp.; strain GC 4549
  MIC Coagulase Negative Staphylococcus (GC 4549): 1 µg/mL (≈ 0.707 µM)
Staphylococcus sp.; strain GC 4551
  MIC Coagulase Negative Staphylococcus (GC 4551): 4 µg/mL (≈ 2.83 µM)
Staphylococcus sp.; strain GC 6257
  MIC Coagulase Negative Staphylococcus (GC 6257): 2 µg/mL (≈ 1.41 µM)
Streptococcus sp.
  MIC Streptococcus agalactiae (GC 4564): 2 µg/mL (≈ 1.41 µM)
  MIC Streptococcus pneumoniae (ATCC 6301): 0.5 µg/mL (≈ 0.353 µM)
  MIC Streptococcus pneumoniae (GC 1894): 0.5 µg/mL (≈ 0.353 µM)
  MIC Streptococcus pneumoniae (GC 4565): 1 µg/mL (≈ 0.707 µM)
  MIC Streptococcus pyogenes (GC 4563): 2 µg/mL (≈ 1.41 µM)
Streptococcus sp.; inoculum 5×10^5 CFU/mL, strain ATCC 6301
  MIC Streptococcus pneumoniae (ATCC 6301): 0.5 µg/mL (≈ 0.353 µM)
Streptococcus sp.; inoculum 5×10^5 CFU/mL, strain GC 1894
  MIC Streptococcus pneumoniae (GC 1894): 0.5 µg/mL (≈ 0.353 µM)
Streptococcus sp.; inoculum 5×10^5 CFU/mL, strain GC 4563
  MIC Streptococcus pyogenes (GC 4563): 2 µg/mL (≈ 1.41 µM)
Streptococcus sp.; inoculum 5×10^5 CFU/mL, strain GC 4564
  MIC Streptococcus agalactiae (GC 4564): 2 µg/mL (≈ 1.41 µM)
Streptococcus sp.; inoculum 5×10^5 CFU/mL, strain GC 4565
  MIC Streptococcus pneumoniae (GC 4565): 1 µg/mL (≈ 0.707 µM)
